Laboratory results reported in PubChem BioAssay (NCI).
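Following 48 hours of exposure in 96-well plates, responses at five concentrations were used to interpolate endpoints linearly. GI50 = concentration required for 50% inhibition of growth. At the TGI there is no net growth.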

Columns and labels:
Assay in all cases: NCI tumour cell line growth inhibition, 48 h
[1] = system: OVCAR-3 ovarian
[2] = system: LOX IMVI melanoma
[3] = system: KM12 colon
[4] = system: TK-10 renal
[5] = system: IGROV1 ovarian
[6] = system: T-47D breast
[7] = system: NCI-H460 lung
[8] = system: MCF7 breast
[9] = system: 786-0 renal
[10] = system: BT-549 breast
[11] = system: SN12C renal
[12] = system: MOLT-4 leukemia
[13] = system: SF-268 CNS
[14] = system: ACHN renal
[15] = system: U251 CNS
[16] = system: EKVX NSCLC
[17] = system: OVCAR-5 ovarian
[18] = system: RPMI-8226 leukemia
[19] = system: NCI-H23 lung
[20] = system: MDA-MB-435
[21] = system: HOP-92 NSCLC
[22] = system: M14 melanoma
[23] = system: UACC-257 melanoma
[24] = system: A549 NSCLC
[25] = system: UACC-62 melanoma
[26] = system: HCC-2998 colon
[27] = system: CAKI-1 renal
[28] = system: K-562 leukemia
[29] = system: HCT-15 colon
[30] = system: SW-620 colon
[31] = system: HOP-62 NSCLC
[32] = system: SK-MEL-5 melanoma
[33] = system: HL-60(TB) leukemia
[34] = system: CCRF-CEM leukemia
[35] = system: RXF 393 renal
[36] = system: NCI/ADR-RES ovarian
[37] = system: OVCAR-8 ovarian
[38] = system: NCI-H522 lung
[39] = system: SK-MEL-2 melanoma
[40] = system: SK-MEL-28 melanoma
[41] = system: OVCAR-4 ovarian
[42] = system: SK-OV-3 ovarian
[43] = system: PC-3 prostate
[44] = system: MDA-MB-231 breast
[45] = system: HCT-116 colon
[46] = system: SF-539 CNS
[47] = system: SNB-75 CNS
[48] = system: SR leukemia
[49] = system: SF-295 CNS
[50] = system: MALME-3M melanoma
[51] = system: SNB-19 CNS
[52] = system: COLO 205 colon
[53] = system: DU-145 prostate
[54] = system: HS 578T breast
[55] = system: HT29 colon
[56] = system: NCI-H226 lung
[57] = system: UO-31 renal
[58] = system: A498 renal

## COC1[C@@H]2C[C@H]3C(C)(C)O[C@@](C/C=C(/C)C(=O)O)(C2=O)[C@]32Oc3c(CC=C(C)C)c4c(c(O)c3C(=O)[C@H]12)C=CC(C)(C)O4 (stereo partly specified)
[1]
  GI50: 3.77 µM
  TGI: 14.9 µM
[2]
  GI50: 2.15 µM
  TGI: 5.31 µM
[3]
  GI50: 14.5 µM
  TGI: 31.1 µM
[4]
  GI50: 18.8 µM
  TGI: 33.5 µM
[5]
  GI50: 3.27 µM
  TGI: 10.7 µM
[6]
  GI50: 3.14 µM
  TGI: 17.6 µM
[7]
  GI50: 8.15 µM
  TGI: 25.8 µM
[8]
  GI50: 3.22 µM
  TGI: 19.1 µM
[9]
  GI50: 2.49 µM
  TGI: 5.97 µM
[10]
  GI50: 2.47 µM
  TGI: 7.1 µM
[11]
  GI50: 6.85 µM
  TGI: 29.7 µM
[12]
  GI50: 3.61 µM
  TGI: 36.8 µM
[13]
  GI50: 12.8 µM
  TGI: 31.7 µM
[14]
  GI50: 4.91 µM
  TGI: 18.4 µM
[15]
  GI50: 4.35 µM
  TGI: 16.1 µM
[16]
  GI50: 10.3 µM
  TGI: 28.9 µM
[17]
  GI50: 20.1 µM
  TGI: 41.7 µM
[18]
  GI50: 2.56 µM
  TGI: 8.1 µM
[19]
  GI50: 16.4 µM
  TGI: 50.6 µM
[20]
  GI50: 11.6 µM
  TGI: 27.8 µM
[21]
  GI50: 10.1 µM
  TGI: 25.9 µM
[22]
  GI50: 6.57 µM
  TGI: 24.4 µM
[23]
  GI50: 14.7 µM
  TGI: 35.8 µM
[24]
  GI50: 19.7 µM
  TGI: 49.9 µM
[25]
  GI50: 13.2 µM
  TGI: 29.4 µM
[26]
  GI50: 16.8 µM
  TGI: 34.4 µM
[27]
  GI50: 16.5 µM
  TGI: 33.1 µM
[28]
  GI50: 3.92 µM
  TGI: 31.4 µM
[29]
  GI50: 2.97 µM
  TGI: 13.5 µM
[30]
  GI50: 3.05 µM
  TGI: 10.8 µM
[31]
  GI50: 16.3 µM
  TGI: 32.4 µM
[32]
  GI50: 12.5 µM
  TGI: 25.9 µM
[33]
  GI50: 1.53 µM
  TGI: 4.99 µM
[34]
  GI50: 3.73 µM
  TGI: 53.1 µM
[35]
  GI50: 4.54 µM
  TGI: 18.2 µM
[36]
  GI50: 15.2 µM
  TGI: > 100 µM
[37]
  GI50: 6.82 µM
  TGI: 29.5 µM
[38]
  GI50: 15.3 µM
  TGI: 32.3 µM
[39]
  GI50: 19 µM
  TGI: 42.1 µM
[40]
  GI50: 11.9 µM
  TGI: 26.6 µM
[41]
  GI50: 12.1 µM
  TGI: 29.9 µM
[42]
  GI50: 23.4 µM
  TGI: 53.4 µM
[43]
  GI50: 6.03 µM
  TGI: 22.2 µM
[44]
  GI50: 6.56 µM
  TGI: 27.6 µM
[45]
  GI50: 3.07 µM
  TGI: 9.71 µM
[46]
  GI50: 14.3 µM
  TGI: 28.5 µM
[47]
  GI50: 19.2 µM
  TGI: 54.3 µM
[48]
  GI50: 2.43 µM
  TGI: > 100 µM
[49]
  GI50: 15.3 µM
  TGI: 34.8 µM
[50]
  GI50: 14.2 µM
  TGI: 29.5 µM
[51]
  GI50: 15.6 µM
  TGI: 30.7 µM
[52]
  GI50: 17.2 µM
  TGI: 40.7 µM
[53]
  GI50: 13.2 µM
  TGI: 26.1 µM
[54]
  GI50: 9.58 µM
  TGI: 78 µM
[55]
  GI50: 10.2 µM
  TGI: 28.8 µM
[56]
  GI50: 18.9 µM
  TGI: 44.8 µM
[57]
  GI50: 6.73 µM
  TGI: 21.3 µM

## CCCn1cnc2c(c1=N)C(c1ccc(OC)cc1)c1sc3c(C)cccc3c1O2 (stereo unspecified)
[1]
  GI50: 0.379 µM
  TGI: 5.92 µM
[2]
  GI50: 0.656 µM
  TGI: 12.3 µM
[3]
  GI50: 0.474 µM
  TGI: 12 µM
[4]
  GI50: 8.09 µM
  TGI: 33.9 µM
[5]
  GI50: 0.472 µM
  TGI: 13.9 µM
[6]
  GI50: 0.527 µM
  TGI: 30.4 µM
[7]
  GI50: 0.381 µM
  TGI: 10.5 µM
[8]
  GI50: 0.303 µM
  TGI: 12.9 µM
[58]
  GI50: 0.317 µM
  TGI: 1.03 µM
[9]
  GI50: 0.523 µM
  TGI: 14.4 µM
[10]
  GI50: 1.35 µM
  TGI: 12.7 µM
[11]
  GI50: 0.635 µM
  TGI: 15.5 µM
[12]
  GI50: 0.569 µM
  TGI: 12.7 µM
[13]
  GI50: 0.787 µM
  TGI: 14.9 µM
[14]
  GI50: 0.604 µM
  TGI: 15.2 µM
[15]
  GI50: 0.445 µM
  TGI: 12.9 µM
[16]
  GI50: 0.598 µM
  TGI: 20.4 µM
[17]
  GI50: 1.16 µM
  TGI: 15 µM
[18]
  GI50: 0.369 µM
  TGI: 4.45 µM
[19]
  GI50: 0.535 µM
  TGI: 14.2 µM
[20]
  GI50: 0.187 µM
  TGI: 0.484 µM
[21]
  GI50: 1.18 µM
  TGI: 16.6 µM
[22]
  GI50: 0.401 µM
  TGI: 12.5 µM
[23]
  GI50: 12.9 µM
  TGI: 35.5 µM
[24]
  GI50: 0.717 µM
  TGI: 18.1 µM
[25]
  GI50: 0.439 µM
  TGI: 15 µM
[26]
  GI50: 0.886 µM
  TGI: 4.91 µM
[27]
  GI50: 0.208 µM
  TGI: 15 µM
[28]
  GI50: 0.261 µM
  TGI: 5.52 µM
[29]
  GI50: 0.408 µM
  TGI: 8.68 µM
[30]
  GI50: 0.517 µM
  TGI: 17.3 µM
[31]
  GI50: 0.406 µM
  TGI: 16.7 µM
[32]
  GI50: 0.411 µM
  TGI: 12.5 µM
[33]
  GI50: 0.292 µM
  TGI: 2.68 µM
[34]
  GI50: 0.355 µM
[35]
  GI50: 0.215 µM
  TGI: 0.603 µM
[36]
  GI50: 0.359 µM
  TGI: 12.4 µM
[37]
  GI50: 0.564 µM
  TGI: 18.8 µM
[38]
  GI50: 0.409 µM
  TGI: 7.59 µM
[39]
  GI50: 0.719 µM
  TGI: 21 µM
[40]
  GI50: 3.34 µM
  TGI: 21.6 µM
[41]
  GI50: 1.61 µM
  TGI: 20.7 µM
[42]
  GI50: 0.657 µM
  TGI: 22.2 µM
[43]
  GI50: 0.415 µM
  TGI: 16 µM
[44]
  GI50: 1.15 µM
  TGI: 15.9 µM
[45]
  GI50: 0.4 µM
  TGI: 10.9 µM
[46]
  GI50: 0.301 µM
  TGI: 1.27 µM
[47]
  GI50: 0.209 µM
  TGI: 1.7 µM
[48]
  GI50: 0.349 µM
[49]
  GI50: 0.368 µM
  TGI: 11.6 µM
[51]
  GI50: 0.49 µM
  TGI: 16 µM
[52]
  GI50: 0.592 µM
  TGI: 4.92 µM
[53]
  GI50: 0.453 µM
  TGI: 15.2 µM
[54]
  GI50: 0.381 µM
  TGI: 8.87 µM
[55]
  GI50: 0.557 µM
  TGI: 13.7 µM
[56]
  GI50: 0.419 µM
  TGI: 9.6 µM
[57]
  GI50: 0.406 µM
  TGI: 16.5 µM
